Test results taken from US9128081B2, “TDP-43-storing cell model” (TOKYO METROPOLITAN INSTITUTE OF MEDICAL SCIENCE, priority 2008, dated 2015).
Entries after “also recorded” stand apart in the source; their conditions may differ. Where a SMILES comes first, the peptide text is derived from it. The star is where a group is joined. Cbz = O=C(OCc1ccccc1)*

Key:
Type in all cases: cell-based, human
[1] = system: SH-SY5Y cells expressing NLS1-deficient mutant TDP-43; experiment: Protease inhibitor treatment of NLS1-deficient mutant-expressing cells, confocal laser microscope; conditions: inhibitor 20 μM, 6 hours; for inclusion formation, anti-pS409/410 staining: inclusion diameter about 10 μm
Procedure: (§1) Each of the above-described various plasmid vectors (pcDNA3 or pEGFP system, 1 μg) was integrated into SH-SY5Y cell using FuGENE6 transfection reagent (Roche Diagnostics). FuGENE6 at 3-fold volume of the total plasmid amount was mixed with the plasmid, left to stand at room temperature for 15 minutes, and then mixed with the cell solution. The resultant was cultured for 2-3 days, and used for preparation of cell lysates or immunohistological staining.
(§2) SH-SY5Y cells cultured on glass covers were mixed with each of the various expression vectors (1 μg) and added in the presence of FuGENE6. After two days of cultivation, cell immobilization or protease inhibitor treatment was carried out. In the protease inhibitor treatment, a final concentration of 20 μM of MG132 (proteasome inhibitor) or carbobenzoxy-leucyl-leucinal (zLL: calpain inhibitor) was added to the cell, and cultured at 37° C. for 6 hours. Thereafter, the cell was immobilized in a 4% paraformaldehyde solution. […] After washing with 50 mM Tris-HCl containing 0.05% Tween 20 and 150 mM NaCl (pH 7.5) (TBS-T), the cell was caused to react with a fluorescence-labeled secondary antibody at 37° C. for an hour. […] The resultant was sealed on a glass slide, and then analyzed with a confocal laser microscope (Carl Zeiss).
(§3) The primary antibody and the fluorescence-labeled secondary antibody used were as follows. • Primary antibody: • anti-TARDBP (ProteinTech, 1:1000 dilution); • anti-pS409/410 (antibody (antibody that specifically binds to TDP-43 aggregates) obtained by using, as an antigen, a peptide in which Ser residues at positions 409 and 410 of TDP-43 are both phosphorylated, 1:500 dilution); • anti-ubiquitin (MAB1510, CHEMICON, 1:500 dilution) • Fluorescence-labeled secondary antibody: • FITC-labeled anti-rabbit IgG (anti-rabbit immunoglobulin, FITC-labeled, Product number: F9887, Sigma, 1:500 dilution); • rhodamine-labeled anti-mouse IgG (anti-mouse immunoglobulin, TRITC-labeled, Product number: T2402, Sigma, 1:500 dilution) […]

[2] = system: SH-SY5Y cells expressing NLS2-deficient mutant TDP-43; experiment: Protease inhibitor treatment of NLS2-deficient mutant-expressing cells, confocal laser microscope; conditions: inhibitor 20 μM, 6 hours; for inclusion formation / expression pattern, anti-TARDBP staining: 37° C.
Procedure: as §1, §2, §3

[3] = system: SH-SY5Y cells expressing pEGFP-TDP 162-414 (GFP-TDP 162-414); experiment: Suppression of formation of intracellular TDP-43 inclusions by low-molecular compounds (GFP-TDP 162-414); conditions: enhanced concentration-dependently, 3 days after addition
Procedure: (§4) The cell used was human neuroblast cell line SH-SY5Y, while pEGFP-TDP 162-414 (GFP-TDP 162-414) and pcDNA3-TDP delta NLS1&2 (TDP delta NLS1&2) which gave more significant formation of intracellular inclusions among various TDP-43 mutants were used to search for an inhibitor for the above-described inclusion formation.
(§5) Gene transfection into SH-SY5Y cell was carried out according to the method described in “Cultivation of SH-SY5Y cell and integration of plasmid vector” above, where 1 μg of each of the various plasmids was transfected into the cell with three-fold volume of a transfection reagent (FuGENE6: 3 μl).
(§6) Treatment with a candidate inhibitor took place two hours after gene transfection. As candidate inhibitors, methylene blue and dimebon were examined. […] The concentrations of methylene blue were determined to take the above concentrations by considering the concentration conditions that have no damage on cell proliferation. On the other hand, the concentrations of dimebon were determined by referring to a publication (Jun Wu et al., Molecular Neurodegeneration, 2008, vol. 3, p. 15), and the preparation method (suspension in sterile water) was carried out according to the instruction provided by the reagent supplier. […]
Fluorescence-Labeled Secondary Antibody: • Alexa-568-labeled anti-mouse IgG (1:500 dilution) […]

[4] = system: SH-SY5Y cells expressing pcDNA3-TDP delta NLS1&2 (TDP delta NLS1&2); experiment: Suppression of formation of intracellular TDP-43 inclusions by low-molecular compounds (TDP delta NLS1&2); conditions: enhanced concentration-dependently, 3 days after addition
Procedure: as §4, §5
as §6, with “transfection.” for “transfection. As candidate inhibitors, methylene blue and dimebon were examined.”
Fluorescence-Labeled Secondary Antibody: • Fluorescein isothiocyanate (FITC)-labeled anti-rabbit IgG (Sigma, 1:500 dilution) • Alexa-568-labeled anti-mouse IgG (1:500 dilution) […]

[5] = system: SH-SY5Y cells expressing wild-type TDP-43; experiment: Protease inhibitor treatment of wild-type TDP-43-expressing cells, confocal laser microscope; conditions: inhibitor 20 μM, 37° C., 6 hours
Procedure: as §1
as §2, with “Zeiss). […]” for “Zeiss).”

[6] = methylene blue 0.05 μM, FIGS. 19 and 20

CC(C)C[C@@H](C=O)NC(=O)[C@H](CC(C)C)NC(=O)OCc1ccccc1 [zLL, carbobenzoxy-leucyl-leucinal]
inclusion formation, anti-pS409/410 staining [1]: no intracellular inclusion was observed
inclusion formation / expression pattern, anti-TARDBP staining [2]: no particular change was found in the expression pattern

CN(C)c1ccc2nc3ccc(=[N+](C)C)cc-3sc2c1 [methylene blue]
inhibition effect on formation of intracellular TDP-43 inclusions [3, 6]: inhibition effect of methylene blue was confirmed
inhibition effect on formation of intracellular TDP-43 inclusions [4, 6]: inhibition effect of methylene blue was confirmed

CC(C)C[C@@H](C=O)NC(=O)[C@H](CC(C)C)NC(=O)[C@H](CC(C)C)NC(=O)OCc1ccccc1 [MG132] (Cbz-Leu-Leu-Leu-aldehyde)
inclusion formation, anti-TARDBP staining ([1]; 37° C.): did not show significant difference from MG132-free cases; also recorded: cytoplasmic inclusions were not observed
inclusion formation, anti-pS409/410 staining [1]: anti-pS409/410-positive cytoplasmic inclusions were observed
inclusion formation, anti-TARDBP staining [5]: did not show significant difference from MG132-free cases
inclusion formation / expression pattern, anti-TARDBP staining [2]: inclusions were found in the nucleus
inclusion formation, anti-pS409/410 and anti-ubiquitin staining ([2]; inclusion diameter about 10 μm): emergence of intranuclear inclusions positive to both anti-pS409/410 and anti-ubiquitin

Cc1ccc2c(c1)c1c(n2CCc2ccc(C)nc2)CCN(C)C1 [dimebon]
inhibition effect on formation of intracellular TDP-43 inclusions ([3]; dimebon 20 μM, FIGS. 21 and 22): inhibition effect of dimebon was also confirmed
inhibition effect on formation of intracellular TDP-43 inclusions ([4]; dimebon 20 μM, FIGS. 21 and 22): inhibition effect of dimebon was also confirmed
